Source: PubChem BioAssay (NCI)
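Test compounds were applied to cells in 96-well plates for 48 hours at 5 doses. The concentration for full growth arrest is given as TGI.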

Tests used:
Assay in all cases: NCI-60 cell line screen, 48 h
[1] = test system: U251 CNS
[2] = test system: RPMI-8226 leukemia
[3] = test system: SK-MEL-2 melanoma
[4] = test system: K-562 leukemia
[5] = test system: SK-MEL-28 melanoma
[6] = test system: SN12C renal
[7] = test system: HOP-92 NSCLC
[8] = test system: SNB-19 CNS
[9] = test system: MALME-3M melanoma
[10] = test system: ACHN renal
[11] = test system: SK-MEL-5 melanoma
[12] = test system: IGROV1 ovarian
[13] = test system: HOP-62 NSCLC
[14] = test system: SF-295 CNS
[15] = test system: HCC-2998 colon
[16] = test system: RXF 393 renal
[17] = test system: SF-268 CNS
[18] = test system: KM20L2 colon
[19] = test system: TK-10 renal
[20] = test system: 786-0 renal
[21] = test system: KM12 colon
[22] = test system: SF-539 CNS
[23] = test system: EKVX NSCLC
[24] = test system: SW-620 colon
[25] = test system: A498 renal
[26] = test system: HL-60(TB) leukemia
[27] = test system: UO-31 renal
[28] = test system: OVCAR-5 ovarian
[29] = test system: DMS 114 small cell lung
[30] = test system: DMS 273 small cell lung
[31] = test system: LOX IMVI melanoma
[32] = test system: A549 NSCLC
[33] = test system: DLD-1 colon
[34] = test system: OVCAR-3 ovarian
[35] = test system: NCI-H23 lung
[36] = test system: CCRF-CEM leukemia
[37] = test system: SK-OV-3 ovarian
[38] = test system: CAKI-1 renal
[39] = test system: HCT-15 colon
[40] = test system: M19-MEL melanoma
[41] = test system: MOLT-4 leukemia
[42] = test system: NCI-H460 lung
[43] = test system: OVCAR-8 ovarian
[44] = test system: COLO 205 colon
[45] = test system: SNB-75 CNS
[46] = test system: UACC-62 melanoma
[47] = test system: HOP-18 NSCLC
[48] = test system: SNB-78 CNS
[49] = test system: NCI-H522 lung
[50] = test system: UACC-257 melanoma
[51] = test system: NCI-H226 lung
[52] = test system: LXFL 529 NSCLC
[53] = test system: M14 melanoma
[54] = test system: SR leukemia
[55] = test system: HCT-116 colon
[56] = test system: OVCAR-4 ovarian
[57] = test system: HT29 colon

Measured: TGI

COc1ccc(/C=C/C(=O)c2sc(NC(=S)NC(=O)c3ccccc3F)nc2C)cc1OC
63.9 µM: [49]
not listed: [50] | [51] | [52] | [53] | [54] | [55] | [56] | [57]
> 100 µM: all other assays above

COc1ccc(CC#N)c(OCc2ccccc2)c1
50.6 µM: [11]
59.4 µM: [25]
67 µM: [52]
66 µM: [51]
79.3 µM: [47]
85 µM: [33]
79 µM: [9]
84.6 µM: [5]
not listed: [1] | [3] | [7] | [16] | [19] | [26] | [28] | [37] | [39] | [45] | [48] | [57]
> 100 µM: all other assays above

O=C(Nc1ccn(CCOC(=O)c2ccccc2)c(=O)n1)c1ccccc1
not listed: [8] | [15] | [33] | [35] | [41]
> 100 µM: all other assays above
